The values below come from US20240398784A1, “C-LINKED ISOQUINOLINE AMIDES AS LRRK2 INHIBITORS, PHARMACEUTICAL COMPOSITIONS, AND USES THEREOF” (Merck Sharp & Dohme LLC, priority 2021, published 2024).

Sequence of LRRK2 G2019S (Q5S007 whole entry G2019S): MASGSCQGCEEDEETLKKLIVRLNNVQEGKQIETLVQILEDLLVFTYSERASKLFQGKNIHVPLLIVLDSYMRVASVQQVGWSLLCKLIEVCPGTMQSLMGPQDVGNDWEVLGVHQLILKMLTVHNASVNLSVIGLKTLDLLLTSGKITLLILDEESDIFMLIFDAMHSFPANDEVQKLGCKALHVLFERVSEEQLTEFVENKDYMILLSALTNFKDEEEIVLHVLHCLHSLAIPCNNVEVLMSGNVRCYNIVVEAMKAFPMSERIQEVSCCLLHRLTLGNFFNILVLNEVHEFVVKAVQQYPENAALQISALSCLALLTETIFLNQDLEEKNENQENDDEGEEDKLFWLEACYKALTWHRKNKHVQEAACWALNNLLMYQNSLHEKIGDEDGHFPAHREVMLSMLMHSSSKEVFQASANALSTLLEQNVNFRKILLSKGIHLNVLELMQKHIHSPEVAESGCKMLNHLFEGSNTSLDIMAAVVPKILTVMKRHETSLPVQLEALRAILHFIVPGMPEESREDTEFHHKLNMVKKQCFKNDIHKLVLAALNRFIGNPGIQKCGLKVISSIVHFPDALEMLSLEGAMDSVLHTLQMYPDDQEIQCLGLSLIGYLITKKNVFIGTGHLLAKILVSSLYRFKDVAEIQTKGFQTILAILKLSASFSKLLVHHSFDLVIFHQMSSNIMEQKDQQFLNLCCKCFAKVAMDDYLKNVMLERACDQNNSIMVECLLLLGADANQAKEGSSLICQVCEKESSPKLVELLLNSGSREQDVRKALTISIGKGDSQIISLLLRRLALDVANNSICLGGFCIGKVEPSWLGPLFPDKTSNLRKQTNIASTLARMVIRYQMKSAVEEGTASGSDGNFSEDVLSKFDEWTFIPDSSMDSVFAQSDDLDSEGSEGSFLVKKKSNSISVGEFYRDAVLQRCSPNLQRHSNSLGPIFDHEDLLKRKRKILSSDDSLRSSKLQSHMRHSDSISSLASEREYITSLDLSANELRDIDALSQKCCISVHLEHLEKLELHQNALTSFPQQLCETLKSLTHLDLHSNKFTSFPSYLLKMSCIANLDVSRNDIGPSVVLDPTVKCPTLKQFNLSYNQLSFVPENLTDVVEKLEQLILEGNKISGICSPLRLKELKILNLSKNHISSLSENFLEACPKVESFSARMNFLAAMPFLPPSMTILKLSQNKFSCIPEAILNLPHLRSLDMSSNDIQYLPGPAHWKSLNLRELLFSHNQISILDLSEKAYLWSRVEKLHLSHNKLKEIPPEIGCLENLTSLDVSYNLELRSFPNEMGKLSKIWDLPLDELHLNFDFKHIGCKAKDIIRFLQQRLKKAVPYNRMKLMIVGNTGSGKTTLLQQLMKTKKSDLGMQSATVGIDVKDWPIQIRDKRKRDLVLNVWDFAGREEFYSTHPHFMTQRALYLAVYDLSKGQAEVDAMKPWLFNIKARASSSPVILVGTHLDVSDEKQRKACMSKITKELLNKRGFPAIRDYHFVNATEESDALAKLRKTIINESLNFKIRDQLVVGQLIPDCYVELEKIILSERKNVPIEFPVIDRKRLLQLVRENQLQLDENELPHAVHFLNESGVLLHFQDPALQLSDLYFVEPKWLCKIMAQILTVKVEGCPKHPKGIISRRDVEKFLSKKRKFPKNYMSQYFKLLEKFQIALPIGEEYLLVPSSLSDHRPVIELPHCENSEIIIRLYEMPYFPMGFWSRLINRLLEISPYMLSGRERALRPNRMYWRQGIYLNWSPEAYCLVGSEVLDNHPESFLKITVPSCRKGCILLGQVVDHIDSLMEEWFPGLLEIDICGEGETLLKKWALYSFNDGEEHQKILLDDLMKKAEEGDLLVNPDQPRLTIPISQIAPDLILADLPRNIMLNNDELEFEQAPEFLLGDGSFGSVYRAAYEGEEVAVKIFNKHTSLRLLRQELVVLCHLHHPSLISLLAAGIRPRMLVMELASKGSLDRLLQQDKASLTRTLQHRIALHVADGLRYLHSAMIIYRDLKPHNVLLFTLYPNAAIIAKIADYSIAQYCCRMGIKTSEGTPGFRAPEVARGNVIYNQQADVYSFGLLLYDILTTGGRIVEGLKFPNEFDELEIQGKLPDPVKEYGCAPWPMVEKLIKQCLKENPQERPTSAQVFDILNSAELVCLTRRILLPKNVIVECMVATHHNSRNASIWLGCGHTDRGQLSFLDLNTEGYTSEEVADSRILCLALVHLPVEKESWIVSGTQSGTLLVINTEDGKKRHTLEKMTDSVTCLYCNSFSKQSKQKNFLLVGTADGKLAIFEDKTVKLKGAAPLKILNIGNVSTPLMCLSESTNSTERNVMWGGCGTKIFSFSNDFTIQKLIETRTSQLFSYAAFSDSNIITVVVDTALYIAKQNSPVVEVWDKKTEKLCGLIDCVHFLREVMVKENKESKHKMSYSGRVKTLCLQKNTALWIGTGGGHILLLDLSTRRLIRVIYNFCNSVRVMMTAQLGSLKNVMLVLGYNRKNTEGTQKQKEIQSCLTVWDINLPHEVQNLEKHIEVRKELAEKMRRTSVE

This test addresses LRRK2 G2019S (Homo sapiens, UniProt Q5S007, G2019S). Description: LRRK2 G2019S Km ATP LanthaScreen assay. Format: biochemical. The conditions noted are these: read-out: LRRK2 pIC50 (converted).
On to `O=C(Nc1cc2cc(C3CCN(C4COC4)CC3F)c(Cl)cc2cn1)C1CC1` (single isomer, unassigned) [Ex-14.2, N-(7-chloro-6-((3R,4R,3S,4R,3R,4S or 3S,4S)-3-fluoro-1-(oxetan-3-yl)piperidin-4-yl)isoquinolin-3-yl)cyclopropanecarboxamide], for which the IC50 is 4.07 nM. The result for `CC1(N2CCC(c3cc4cc(NC(=O)C5CC56CCOCC6)ncc4cc3Cl)C(F)C2)COCC1O` (single isomer, unassigned) [Ex-14.4, N-(7-chloro-6-(3-fluoro-1-(4-hydroxy-3-methyltetrahydrofuran-3-yl)piperidin-4-yl)isoquinolin-3-yl)-6-oxaspiro[2.5]octane-1-carboxamide] reads 0.186 nM; that for `CC1(N2CCC(c3cc4cc(NC(=O)C5CC56CCOCC6)ncc4cc3Cl)C(F)C2)COCC1O` (single isomer, unassigned) [Ex-14.5, N-(7-chloro-6-(3-fluoro-1-(4-hydroxy-3-methyltetrahydrofuran-3-yl)piperidin-4-yl)isoquinolin-3-yl)-6-oxaspiro[2.5]octane-1-carboxamide], 1.58 nM; that for `CC1(N2CCC(c3cc4cc(NC(=O)C5CC56CCOCC6)ncc4cc3Cl)C(F)C2)COCC1O` (single isomer, unassigned) [Ex-14.6, N-(7-chloro-6-(3-fluoro-1-(4-hydroxy-3-methyltetrahydrofuran-3-yl)piperidin-4-yl)isoquinolin-3-yl)-6-oxaspiro[2.5]octane-1-carboxamide], 2.57 nM. As for `Cc1cc2cnc(NC(=O)C3CC4(CC4)C3)cc2cc1C1CCN(C2(C)COCC2O)CC1` (single isomer, unassigned) [Ex-15.2, N-(6-(1-(4-hydroxy-3-methyltetrahydrofuran-3-yl)piperidin-4-yl)-7-methylisoquinolin-3-yl)spiro[2.3]hexane-5-carboxamide], the IC50 was 0.302 nM. On to `Cc1cc2cnc(NC(=O)C3CC34CCOCC4)cc2cc1C1CCN(C2(C)COCC2C)CC1` (single isomer, unassigned) [Ex-15.3, N-(6-(1-(3,4-dimethyltetrahydrofuran-3-yl)piperidin-4-yl)-7-methylisoquinolin-3-yl)-6-oxaspiro[2.5]octane-1-carboxamide], for which the IC50 is 47.9 nM. For the compound `Cc1cc2cnc(NC(=O)C3CC34CCOCC4)cc2cc1C1CCN(C2(C)COCC2C)CC1` (single isomer, unassigned) [Ex-15.4, N-(6-(1-(3,4-dimethyltetrahydrofuran-3-yl)piperidin-4-yl)-7-methylisoquinolin-3-yl)-6-oxaspiro[2.5]octane-1-carboxamide], the IC50 is 0.0813 nM. The same measure for `Cc1cc2cnc(NC(=O)C3CC3C(C)(C)F)cc2cc1C1CCN(C2(C)COCC2O)CC1` (single isomer, unassigned) [Ex-15.5, 2-(2-fluoropropan-2-yl)-N-(6-(1-(4-hydroxy-3-methyltetrahydrofuran-3-yl)piperidin-4-yl)-7-methylisoquinolin-3-yl)cyclopropane-1-carboxamide]: 21.4 nM; for `Cc1cc2cnc(NC(=O)C3CC3C(C)(C)F)cc2cc1C1CCN(C2(C)COCC2O)CC1` (single isomer, unassigned) [Ex-15.6, 2-(2-fluoropropan-2-yl)-N-(6-(1-(4-hydroxy-3-methyltetrahydrofuran-3-yl)piperidin-4-yl)-7-methylisoquinolin-3-yl)cyclopropane-1-carboxamide]: 0.501 nM; for `Cc1cc2cnc(NC(=O)C3CC34CCOC4)cc2cc1C1CCN(C2(C)COCC2F)CC1` (single isomer, unassigned) [Ex-15.7, N-(6-(1-(4-fluoro-3-methyltetrahydrofuran-3-yl)piperidin-4-yl)-7-methylisoquinolin-3-yl)-5-oxaspiro[2.4]heptane-1-carboxamide]: 1.23 nM. The result for `Cc1cc2cnc(NC(=O)C3CC34CCOC4)cc2cc1C1CCN(C2(C)COCC2F)CC1` (single isomer, unassigned) [Ex-15.8, N-(6-(1-(4-fluoro-3-methyltetrahydrofuran-3-yl)piperidin-4-yl)-7-methylisoquinolin-3-yl)-5-oxaspiro[2.4]heptane-1-carboxamide] reads 219 nM; that for `Cc1cc2cnc(NC(=O)C3CC34CCOC4)cc2cc1C1CCN(C2(C)COCC2F)CC1` (single isomer, unassigned) [Ex-15.9, N-(6-(1-(4-fluoro-3-methyltetrahydrofuran-3-yl)piperidin-4-yl)-7-methylisoquinolin-3-yl)-5-oxaspiro[2.4]heptane-1-carboxamide], 2.4 nM. Take `Cc1cc2cnc(NC(=O)C3CC34CCOC4)cc2cc1C1CCN(C2(C)COCC2F)CC1` (single isomer, unassigned) [Ex-15.10, N-(6-(1-(4-fluoro-3-methyltetrahydrofuran-3-yl)piperidin-4-yl)-7-methylisoquinolin-3-yl)-5-oxaspiro[2.4]heptane-1-carboxamide]: the IC50 was 2 nM.

As to `Cc1cc2cnc(NC(=O)C3CC34CCOC4)cc2cc1C1CCN(C2(C)COCC2F)CC1` (single isomer, unassigned) [Ex-15.11, N-(6-(1-(4-fluoro-3-methyltetrahydrofuran-3-yl)piperidin-4-yl)-7-methylisoquinolin-3-yl)-5-oxaspiro[2.4]heptane-1-carboxamide], the IC50 was 70.8 nM. The result for `Cc1cc2cnc(NC(=O)C3CC34CCOC4)cc2cc1C1CCN(C2(C)COCC2F)CC1` (single isomer, unassigned) [Ex-15.12, N-(6-(1-(4-fluoro-3-methyltetrahydrofuran-3-yl)piperidin-4-yl)-7-methylisoquinolin-3-yl)-5-oxaspiro[2.4]heptane-1-carboxamide] reads 85.1 nM. The result for `Cc1cc2cnc(NC(=O)C3CC34CCOC4)cc2cc1C1CCN(C2(C)COCC2F)CC1` (single isomer, unassigned) [Ex-15.13, N-(6-(1-(4-fluoro-3-methyltetrahydrofuran-3-yl)piperidin-4-yl)-7-methylisoquinolin-3-yl)-5-oxaspiro[2.4]heptane-1-carboxamide] reads 2.69 nM; that for `Cc1cc2cnc(NC(=O)C3CC34CCOC4)cc2cc1C1CCN(C2(C)COCC2F)CC1` (single isomer, unassigned) [Ex-15.14, N-(6-(1-(4-fluoro-3-methyltetrahydrofuran-3-yl)piperidin-4-yl)-7-methylisoquinolin-3-yl)-5-oxaspiro[2.4]heptane-1-carboxamide], 3.72 nM.

`CCC1C(C(=O)Nc2cc3cc(C4CCN(C5(C)COCC5F)CC4)c(C)cc3cn2)C1c1cnn(C)c1` (single isomer, unassigned) [Ex-15.15, 2-ethyl-N-(6-(1-(4-fluoro-3-methyltetrahydrofuran-3-yl)piperidin-4-yl)-7-methylisoquinolin-3-yl)-3-(1-methyl-1H-pyrazol-4-yl)cyclopropane-1-carboxamide]: the IC50 is 58.9 nM.

On to `Cc1cc2cnc(NC(=O)C3CC34CCOCC4)cc2cc1C1CCN(C2(C)COCC2O)CC1` (single isomer, unassigned) [Ex-15.16, N-(6-(1-(4-hydroxy-3-methyltetrahydrofuran-3-yl)piperidin-4-yl)-7-methylisoquinolin-3-yl)-6-oxaspiro[2.5]octane-1-carboxamide], for which the IC50 was 0.0813 nM. Regarding `Cc1cc2cnc(NC(=O)C3CC3c3ccn(C)n3)cc2cc1C1CCN(C2(C)COCC2F)CC1` (single isomer, unassigned) [Ex-16.1], the IC50 was 0.0813 nM.
